Data on 43 compounds can be found in patent US20210137911A1, “NOVEL CHRONOTHERAPY BASED ON CIRCADIAN RHYTHMS” (THE TRUSTEES OF THE UNIVERSITY OF PENNSYLVANIA, priority 2014, published 2021).

Positions of bridges follow the written chain, without caps; N, C: chain ends. Non-standard residues stand in square brackets, D forms with d. Residues, ends and D or L forms follow the SMILES beside them.

What is called half-life is the time needed for the level to fall by half in the phase considered.

The first data set can be described thus: Trial of bedtime versus awakening administered Valsartan, blood pressure. The data set is classed as in vivo. The settings on record: bedtime minus awakening. The source says: Taking an angiotensin receptor blocker (ARB) or an […] (ACE) inhibitor before bedtime is known to cause a drop in blood pressure. […] Thus, current treatment methods are insufficient to induce a dip in non-dippers.
For `CCCCC(=O)N(Cc1ccc(-c2ccccc2-c2nnn[nH]2)cc1)[C@H](C(=O)O)C(C)C` [Valsartan], the “net blood pressure difference bedtime vs awakening, first value of printed pair” value is listed as 8 mmHg and the “net blood pressure difference bedtime vs awakening, second value of printed pair” value turned out to be 6 mmHg.

Staying with this data set, now noted: bedtime vs awakening group.
As to `CCCCC(=O)N(Cc1ccc(-c2ccccc2-c2nnn[nH]2)cc1)[C@H](C(=O)O)C(C)C` [Valsartan], the “better result of bedtime group than the awakening group” value came to 10 mmHg.

Assay in another data set: not given
The following applies: cited from earlier work.
Consider `CCCCC(=O)N(Cc1ccc(-c2ccccc2-c2nnn[nH]2)cc1)[C@H](C(=O)O)C(C)C` [Valsartan], for which the “time at which concentration in plasma reaches the maximum after administration” value is 2 to 4 h.

Assay in a further data set: not given
The settings on record: half-life of therapeutic compound as listed in Table 1; cited from earlier work.
Consider `O=C(O)c1cccnc1` [niacin, reference compound], for which the “½ Life” value is 0.33 h. For the compound OspA lipoprotein, the “½ Life” value is 1.2 h.

The data set is the same for the next values; noted with them: half-life of top selling therapeutic compounds (Table 1); cited from earlier work.
Turning to Bleomycin, the “½ Life” value is 1.916 h. On to “Corticotropin (SYSMEHFRWGKPVGKKRRPVKVYPNGAEDESAEAFPLEF; Corticotropin; UniProt P01189 138-176, looked up)”, for which the “½ Life” value is 0.25 h. With Denileukin diftitox, the “½ Life” value was 1.166 h.

Still in this data set, the particulars now being: in vivo; cited from earlier work.
In the case of `COc1cc2c3cc1Oc1cc(ccc1O)C[C@@H]1c4c(cc(OC)c(O)c4Oc4ccc(cc4)C[C@@H]3N(C)CC2)CC[N+]1(C)C` [Tubocurarine], the “½ Life” value is 1 h. In the case of `CC(C)[C@@H]1NC(=O)[C@H](CCCCN)NC(=O)[C@@H](Cc2c[nH]c3ccccc23)NC(=O)[C@H](Cc2ccc(O)cc2)NC(=O)[C@@H](NC(=O)[C@H](N)Cc2ccccc2)CSSC[C@@H](C(=O)N[C@@H](Cc2c[nH]c3ccccc23)C(N)=O)NC1=O` [Vapreotide] (H-[dF]CY[dW]KVCW-NH2; disulfide 2-7), the “½ Life” value was 0.5 h. For the compound `NC(=O)CC[C@@H]1NC(=O)[C@H](Cc2ccccc2)NC(=O)[C@H](Cc2ccc(O)cc2)NC(=O)[C@@H](N)CSSC[C@@H](C(=O)N2CCC[C@H]2C(=O)N[C@@H](CCCN=C(N)N)C(=O)NCC(N)=O)NC(=O)[C@H](CC(N)=O)NC1=O` [Vasopressin], the “½ Life” value is 0.166 h. On to `CC(=O)O[C@H]1C[C@@H]2CC[C@@H]3[C@H](CC[C@@]4(C)[C@H]3C[C@H]([N+]3(C)CCCCC3)[C@@H]4OC(C)=O)[C@@]2(C)C[C@@H]1N1CCCCC1` [Vecuronium], for which the “½ Life” value was 0.85 h.

In the case of `N#C[C@@H]1CCCN1C(=O)CNC12CC3CC(CC(O)(C3)C1)C2` [Vildagliptin], the “½ Life” value was 1.5 h. With `CC[C@]1(O)C[C@H]2CN(CCc3c([nH]c4ccccc34)[C@@](C(=O)OC)(c3cc4c(cc3OC)N(C=O)[C@H]3[C@@](O)(C(=O)OC)[C@H](OC(C)=O)[C@]5(CC)C=CCN6CC[C@]43[C@@H]65)C2)C1` [Vincristine], the “½ Life” value is 5 h. As for `O=C(CCCCCCC(=O)Nc1ccccc1)NO` [Vorinostat], the “½ Life” value was 2 h.

`CC(=O)N[C@H]1[C@H]([C@H](O)[C@H](O)CO)OC(C(=O)O)=C[C@@H]1N=C(N)N` [Zanamivir]: the “½ Life” value is 2.5 h. In the case of `Cc1cn([C@H]2C[C@H](N=[N+]=[N-])[C@@H](CO)O2)c(=O)[nH]c1=O` [Zidovudine], the “½ Life” value is 1.1 h. As to `CN(C)CCc1c[nH]c2ccc(C[C@H]3COC(=O)N3)cc12` [Zolmitriptan], the “½ Life” value is 3 h. As for `Cc1ccc(-c2nc3ccc(C)cn3c2CC(=O)N(C)C)cc1` [Zolpidem], the “½ Life” value was 2.6 h. As to `CN1CCN(C(=O)OC2c3nccnc3C(=O)N2c2ccc(Cl)cn2)CC1` (centres unmarked) [Zopiclone], the “½ Life” value is 5 h. As to Aldesleukin, the “½ Life” value is 0.216 h. In the case of Alglucosidase alfa, the “½ Life” value was 2.3 h.

On to Anakinra, for which the “½ Life” value is 4 h. For Defibrotide, the “½ Life” value is 1 h. As to Drotrecogin alfa, the “½ Life” value is 5.5 h.

On to Enoxaparin, for which the “½ Life” value was 4.5 h.

Take Galsulfase: the “½ Life” value was 0.15 h.

Regarding Heparin, the “½ Life” value was 1.5 h. For Insulin Detemir, the “½ Life” value is 5 h. Consider Insulin Glulisine, for which the “½ Life” value is 0.7 h.

On to Insulin Lispro, for which the “½ Life” value was 1 h. Interferon Alfa-2a, Recombinant: the “½ Life” value is 2 h. Take Interferon alfacon-1: the “½ Life” value was 1.3 h. Leptin: the “½ Life” value was 0.415 h.

As to Mecasermin, the “½ Life” value was 2 h. Regarding Muromonab, the “½ Life” value was 0.8 h. As to Nesiritide, the “½ Life” value was 0.3 h. Regarding Nitroprusside, the “½ Life” value was 0.033 h. Take Pegaptanib: the “½ Life” value was 3 h. Turning to Pentosan Polysulfate, the “½ Life” value is 4.8 h.

Take Rituximab: the “½ Life” value was 0.8 h. On to Tinzaparin, for which the “½ Life” value was 1.366 h. Take Tositumomab: the “½ Life” value is 0.8 h. For the compound Urokinase, the “½ Life” value was 0.2 h. Vitamin A: the “½ Life” value is 1.9 h.

The same data set, now with this note: see Table 1; cited from earlier work.
In the case of `O=C(O)c1cccnc1` [niacin, reference compound], the half-life is 19.8 min.
